Earlier results in US20040077556A1, “Compositions and methods for promoting weight loss, thermogenesis, appetite suppression, lean muscle mass, increasing metabolism and boosting energy levels, and use as a dietary supplement in mammals” (priority 2002, published 2004).
Read-outs that look alike come from different tables or passages of the source.

Experiments:
[1] = system: brown adipose tissue thermogenesis
[2] = cold-exposed rats

## O=C(O[C@@H]1Cc2c(O)cc(O)cc2O[C@@H]1c1cc(O)c(O)c(O)c1)c1cc(O)c(O)c(O)c1 [EGCG, (2R,3R)-2-(3,4,5-Trihydroxyphenyl)-3,4-dihydro-1[2H]-benzopyran-3,5,7-triol 3-(3,4,5-trihydroxybenzoate)]
[1]; EGCG alone, 200 μM
  increase in thermogenesis: 40%
[1]; EGCG alone, 50 and 100 μM
  effect on thermogenesis: no effect

## O=c1c(O)c(-c2ccc(O)c(O)c2)oc2cc(O)ccc12 [Fisetin, 3,3′,4′,7-tetrahydroxyflavone]
cAMP
  increase in cAMP: dose-dependent increase

## O=c1c(O)c(-c2ccc(O)c(O)c2)oc2cc(O)cc(O)c12 [quercetin, 3,3′,4′,5-7-pentahydroxyflavone]
cAMP
  increase in cAMP: dose-dependent increase

## NCCc1ccccc1 [PEA, phenylethylamine]
15 mg per kg of bodyweight per day
  decrease of food intake: roughly one-third
50 mg per kg of bodyweight
  maximum reduction of food intake: roughly twenty
15-50 mg per kg of bodyweight
  reduction of food intake: 20-30%
After four weeks
  tolerance to appetite-reducing effect: no tolerance

## Cn1c(=O)c2c(ncn2C)n(C)c1=O [caffeine]
[1]; caffeine alone
  effect on thermogenesis: little or no effect

## Cn1c(=O)c2[nH]cnc2n(C)c1=O.NCCN [aminophylline, theophylline ethylenediamine]
[2]; fed
  increase of maximum thermogenesis: 14.4%
[2]; unfed
  increase of maximum thermogenesis: 19.4%
[2]; unfed, to levels seen in fed rats, dropped 18.2 percent without pretreatment
  noradrenaline-stimulated thermogenesis after pretreatment: restored
